From patent publication US7196104B2, “Thiazolyl urea compounds and methods of uses” (Amgen, Inc., priority 2000, dated 2007)

First: O=C(Nc1ccccn1)Nc1csc(-c2ccccn2)n1 [Example 5, N-[2-(2-Pyridinyl)-4-thiazolyl]-N′-2-pyridinylurea]
Second: Cc1ccnc(NC(=O)Nc2csc(-c3ccccn3)n2)c1 [Example 42, N-[2-(2-Pyridinyl)-4-thiazolyl]-N′-2-(4-methylpyridinyl)urea]
The melting point of the first is higher: 233 to 235 °C for the first, 217 to 219 °C for the second.

First: CCCc1cccc(NC(=O)Nc2csc(-c3ccnc(CC)c3)n2)n1 [Example 14, N-[2-(2-Ethyl-4-pyridinyl)-4-thiazolyl]-N′-2-(6-propylpyridinyl)urea]
Second: CCCc1cccc(NC(=O)Nc2csc(-c3cccc(OC)c3)n2)n1 [Example 47, N-[2-(3-Methoxyphenyl)-4-thiazolyl]-N′-2-(6-propylpyridinyl)urea]
The melting point of the first is higher: 204 to 206 °C for the first, 192 to 194 °C for the second.

First: CN1CCN(c2cccc(NC(=O)Nc3csc(-c4ccncc4)n3)n2)CC1 [Example 31, N-[2-(4-Pyridinyl)-4-thiazolyl]-N′-2-[6-(1-methyl-4-piperazinyl)pyridinyl]urea]
Second: O=C(Nc1cccc(NCCCN2CCOCC2)n1)Nc1csc(-c2ccncc2)n1 [Example 33]
The melting point of the first is higher: 251 to 253 °C for the first, 215 to 217 °C for the second.

First: NC(=O)c1ccc(NC(=O)Nc2csc(-c3ccncc3)n2)nc1 [Example 34, [[(2-(4-Pyridinyl)-4-thiazolylamino)carbonyl]amino]-2-pyridinyl-5-carboxamide]
Second: CN(C)CCNc1cccc(NC(=O)Nc2csc(-c3ccncc3)n2)n1 [Example 35, N-[2-(4-Pyridinyl)-4-thiazolyl]-N′-2-[6-(N″,N″-aminoethylamino)pyridinyl]urea]
The melting point of the first is higher: 255 to 257 °C for the first, 210 to 212 °C for the second.

Compared with `CC(C)(C)c1cc(NC(=O)Nc2csc(-c3cccnc3)n2)no1` [Example 37, N-[2-(3-Pyridinyl)-4-thiazolyl]-N′-[5-(1,1-dimethylethyl)-3-isoxazolyl]urea], `COc1cccc(-c2nc(NC(=O)Nc3ccccn3)cs2)c1` [Example 48, N-[2-(3-Methoxyphenyl)-4-thiazolyl]-N′-2-pyridinylurea] is lower in melting point: 230 to 232 °C for the first, 201 to 203 °C for the second.

Compared with `Cc1ccc(NC(=O)Nc2csc(-c3ccccn3)n2)nc1` [Example 38, N-[2-(2-Pyridinyl)-4-thiazolyl]-N′-2-(5-methylpyridinyl)urea], `CCc1cccc(NC(=O)Nc2csc(-c3ccccn3)n2)n1` [Example 44, N-[2-(2-Pyridinyl)-4-thiazolyl]-N′-2-(6-ethylpyridinyl)urea] is lower in melting point: 228 to 230 °C for the first, 213 to 215 °C for the second.

First: Cc1cc(C)nc(NC(=O)Nc2csc(-c3ccccn3)n2)c1 [Example 40, N-[2-(2-Pyridinyl)-4-thiazolyl]-N′-2-(4,6-dimethylpyridinyl)urea]
Second: CCc1ccnc(NC(=O)Nc2csc(-c3ccccn3)n2)c1 [Example 50, N-[2-(2-Pyridinyl)-4-thiazolyl]-N′-2-(4-ethylpyridinyl)urea]
The melting point of the first is higher: 232 to 234 °C for the first, 196 to 198 °C for the second.

First: Cc1ccc2nc(NC(=O)Nc3csc(-c4ccccn4)n3)sc2c1 [Example 41, N-[2-(2-Pyridinyl)-4-thiazolyl]-N′-2-(6-methylbenzthiazolyl)urea]
Second: CCCc1cccc(NC(=O)Nc2csc(-c3ccccn3)n2)n1 [Example 51, N-[2-(2-Pyridinyl)-4-thiazolyl]-N′-2-(6-propylpyridinyl)urea]
The melting point of the first is higher: 263 to 265 °C for the first, 210 to 212 °C for the second.

Compared with `CCCc1cccc(NC(=O)Nc2csc(-c3ccc(OC)cc3)n2)n1` [Example 45, N-[2-(4-Methoxyphenyl)-4-thiazolyl]-N′-2-(6-propylpyridinyl)urea], `CCCc1cccc(NC(=O)Nc2csc(-c3ccc(O)cc3)n2)n1` [Example 46, N-[2-(4-Hydroxyphenyl)-4-thiazolyl]-N′-2-(6-propylpyridinyl)urea] is higher in melting point: 223 to 225 °C for the first, 227 to 229 °C for the second.

In the case of `CCCc1cccc(NC(=O)Nc2cccc(-c3ccncc3)c2)n1` [Example 54, N-[3-(4-Pyridinyl)phenyl]-N′-2-(6-propylpyridinyl)urea], the melting point is reported as 195 to 198 °C.
